PubChem BioAssay AID179 (DTP/NCI, 2004)
Active and inactive are the calls of the source.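 The calls were made as follows: active = compounds giving half or more protection of infected cells from virus-caused growth loss, again on retest; inactive = the rest.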 Where a SMILES comes first, the peptide text is derived from it.

System: CEM cells HIV-1 protection, formazan growth assay
Experiment: NCI AIDS Antiviral Assay
Details: for IC50: measured here: growth of uninfected CEM cells
In short: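 Five concentrations of each compound were applied to infected and uninfected human CEM cells. Protection from HIV-1 was judged from growth measured with a soluble formazan assay.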

Structure (SMILES)	EC50 [µM]	IC50 [µM]	outcome
CC(NC(=O)C(Cc1ccc(OC(=O)c2ccccc2)cc1)NC(=O)OC(C)(C)C)C(=O)NCC(=O)NC(Cc1ccccc1)C(=O)NN (configuration not stated)	> 200	11.7	
O=C1CSCC(=O)O1	> 1910	> 1910	
CCSC1=N/C(=C\c2ccco2)C(=O)N1	> 200	> 200	
CCCCCCCCCCCCCC(=O)OCC1OC(n2cc(C)c(=O)[nH]c2=O)CC1N=[N+]=[N-] (configuration not stated)	0.00372	102	
O=c1/c(=C/c2ccccc2[N+](=O)[O-])sc2nnc(-c3cccnc3)n12	> 186	> 186	
CC1(c2ccccc2)OC(=O)c2ccccc21 (configuration not stated)	> 200	> 100	
CCCCN(CCCC)CCCCCCCN1CCCc2cc(OC)ccc21	> 200	17.8	
CC(=O)[O-].COc1cccc(/C=N/[N-]C(=O)c2ccncc2)c1.[OH3+].[OH3+].[OH3+].[Zn+2]	> 200	3.89	
Clc1ccc(CCn2ccc3ccccc32)c(Cl)c1	> 200	> 200	
O=C(CCCC[n+]1ccccc1)Sc1ccccc1C(=O)Nc1ccc(S(=O)(=O)NC(=O)c2ccccc2)cc1	18.2	61.7	
c1ccc2sc(SSSc3nc4ccccc4s3)nc2c1	14.1	34.7	
O=C1SC(=NC2CCCCC2)N(C2CCCCC2)/C1=C1\C(=O)SC(=NC2CCCCC2)N1C1CCCCC1	> 26.9	> 26.9	
Cc1cc2c(cc1C)C(=O)C1(C2)Cc2cc3c(cc2C1=O)CCC3 (configuration not stated)	> 100	> 100	
O=C(O)CCCc1ccc(N(CCCl)CCCl)cc1	> 200	14.8	
O=c1c2cccc3cccc(c4oc5c6cccc7cccc(c(=O)c5c14)c76)c32			inactive
Cc1cc2c(C)n(Cc3ccc(Cl)cc3Cl)nc2c(C(=O)O)c1C	> 501	83.2	
CCCCN(C(=O)c1ccccc1)C1CCC(=O)c2[nH]c3ccccc3c21 (configuration not stated)	> 200	17	
CC(C)=CCC1=C(O)C(CC=C(C)C)(CC=C(C)C)C(=O)C(C(=O)C(C)C)=C1O	> 33.9	7.08	
COC(=N)CCNC(=O)C(O)C(O)C(=O)NCCC(=N)OC (configuration not stated)	> 646	> 646	
Cc1cc2[nH]c3[nH]c(=O)[nH]c(=O)c3c2cc1C	> 200	170	
CC(=O)NC(CO)C(=O)NC(Cc1ccc(O)cc1)C(=O)NCC(N)=O (stereo not drawn) (Ac-Ser-Tyr-Gly-NH2; configuration not given here)	> 200	> 200	
Nc1nc2c(c(=O)[nH]1)C(c1ccc(Cl)cc1)C=C(c1ccccc1)N2 (configuration not stated)	> 200	14.1	

Structure (SMILES)	EC50 [µM]	IC50 [µM]	outcome
CCOC(=O)c1ccn2c(c1)c(C#N)c1nc3ccccc3nc12	> 16.6	> 16.6	
COc1ccc(C2(CC(C)O)SCCCS2)cc1 (configuration not stated)	> 200	115	
COc1cccc(Nc2nc(NS(=O)(=O)c3cc(C)c(Cl)cc3S)n[nH]2)c1	> 200	158	
CCOC(=O)Cc1csc(/N=C\c2c(O)c3ccccc3oc2=O)n1	> 200	40.7	
CC(C)=CC1CC(=O)C1(C)Sc1ccccc1 (configuration not stated)	> 40.7	> 40.7	
[N-]=[N+]=Nc1c(Cl)c(Cl)nc2ccccc12	> 200	61.7	
CC1=CCC[C@H]2[C@](C)(CC3=CC(=O)C(SCC(C)C)=CC3=O)[C@@H](C)CC[C@]12C	> 200	2.14	
Cc1ccc(/C=N/n2c(-c3ccc(C)cc3)n[nH]c2=O)cc1	> 200	> 200	
CCCN1CN(C(C(=O)N[C@@H]2C(=O)N3C2SC(C)(C)C3C(=O)O)c2ccccc2)CSC1=S (some centres not stated)	> 257	148	
CC(C(N)=O)N(C)C(=O)c1cc2ccccc2[n+](Cc2ccccc2)c1 (configuration not stated)			inactive
Cc1nnc2c([N+](=O)[O-])c(N)c(Cl)nn12	> 200	1.29	
Cc1ccc(O)c(OC2OC(C(=O)O)C(O)C(O)C2O)c1 (configuration not stated)	> 832	> 832	
COc1ccc2c(c1)CC1c3c(cc4c(c3-2)OCO4)CCN1C (configuration not stated)	> 589	3.31	
CCOP(=O)(OCC)/C(=C/NC(=S)c1cccnc1)C(=O)OC	> 200	34.7	
CCC(c1ccc(Cl)cc1)N1CCC2(CC1)C(=O)NCN2c1ccccc1 (configuration not stated)	> 200	> 200	
COc1ccc2nc3c(nc2c1)C(C)(C)C=C3c1ccc(Br)cc1	> 100	> 100	
CCCCCCCCCCCCCCCC(=O)Nc1ccn(C2CSC(COP(=O)(O)OC3CC(n4ccc(NC(=O)CCCCCCCCCCCCCCC)nc4=O)OC3CO)O2)c(=O)n1 (configuration not stated)	9.55	> 200	
O=[N+]([O-])c1ncnc2c1ncn2C1OC(CO)CC1F (configuration not stated)	> 89.1	28.2	
COc1ccc(OC)c(NC2=NCCO2)c1	> 200	107	
O=C1CCC2(CC1CC(Sc1ccccc1)Sc1ccccc1)OCCO2 (configuration not stated)	> 200	41.7	
N/C(=N/N=C/C1CCCCC1)NO			inactive
CN(C)C=Nc1cccc2cnccc12	> 200	166	

Structure (SMILES)	EC50 [µM]	IC50 [µM]	outcome
OC(c1cc(C(O)(C(F)(F)F)C(F)(F)F)ncn1)(C(F)(F)F)C(F)(F)F	> 200	166	
CC1Cc2c(N)nc(NN)nc2NC1=O (configuration not stated)			inactive
Cc1cc(NS(=O)(=O)c2ccc(NC(=O)c3cccc4c(Nc5ccc(S(=O)(=O)Nc6cc(C)on6)cc5)c5ccccc5nc34)cc2)no1	> 36.3	> 36.3	
COC1=CC(=O)[C@]2(C)[C@H](C1=O)C(C)[C@H]2c1ccc(OC)cc1 (some centres not stated)	> 87.1	> 87.1	
CCCCCCNCCc1cnc[nH]1	> 200	> 200	
CCSCCCCCCCCCCC(=O)OCC1OC(n2cc(C)c(=O)[nH]c2=O)CC1N=[N+]=[N-] (configuration not stated)	0.0479	49	
COc1cccc(C2c3cc4c(cc3OC(NNC(N)=O)C2C)OCO4)c1O (configuration not stated)	> 200	1.12	
NC(=O)N/N=C(/Cc1nc2ccc(C(=O)c3ccccc3)cc2[nH]c1=O)C(=O)Nc1ccc(C(F)(F)F)cc1[N+](=O)[O-]			inactive
CC1CCCc2c1c1ccc3c(O)cccc3c1oc2=O (configuration not stated)	> 7.08	> 7.08	
COc1ccc(-c2onc3ccc(Cl)cc23)cc1	> 20	> 20	
Cn1nc(-c2ccccc2)c(C(=O)/C=C/c2ccc(Cl)cc2)c(N2CCCC2)c1=O	> 15.1	10.7	
Clc1cc(Cl)c(SSc2cc(Cl)c(Cl)cc2Cl)cc1Cl	> 200	> 200	
O=c1c(Cl)cc2nc3ccccc3sc-2c1Cl	> 9.55	8.91	
O=C1OC(c2ccccc2)=N/C1=C\c1ccccc1O	> 26.9	> 26.9	
COc1ccc(-c2nnc(CCCCCCCCc3nnc(-c4ccc(OC)cc4)o3)o2)cc1	> 200	> 200	
CN(C)CCNC(=O)c1cccc2c1Oc1c(cccc1[N+](=O)[O-])O2	> 20	0.245	
COCOc1ccc(Cn2c(=O)n(C)c(=O)c3c2ncn3C)cc1[N+](=O)[O-]	> 50.1	> 50.1	
O=S(=O)(O)c1cc[c]([Sb](=[O])([OH])[OH])cc1	0.661	398	
CCC(O)CCCCCCCCCCCCCCC(=O)O (configuration not stated)			inactive
O=C1NC(=O)C(=Cc2ccccc2)C(=O)N1	> 166	> 166	
COc1ccc(-c2cc(=O)c3ccccc3o2)c(OC)c1OC	> 200	31.6	
CN(C)/N=C(/SS/C(=N/N(C)C)C(F)(F)F)C(F)(F)F			inactive

Structure (SMILES)	EC50 [µM]	IC50 [µM]	outcome
COc1ccc(Cl)cc1C(=O)c1cc(Cl)cc(S(=O)(=O)N(C)C)c1OC	> 9.12	8.13	
CN(C)CCN(C)CC1COC(C)(C)O1 (configuration not stated)			inactive
CCC12CCCNC1c1c(n(C)c3ccccc13)C(C(=O)OC)C2 (configuration not stated)	> 37.2	34.7	
O=c1[nH]c(=O)n(COCc2ccccc2)c2ccsc12			inactive
Cc1ccccc1N=Nc1c(-c2ccccc2)nn(C(=O)CC(=O)Nc2cccc(Cl)c2)c1-c1ccccc1	> 25.1	> 25.1	
[Cu+2].[O-]/C(=N\N=C/c1cccc(C(F)(F)F)c1)c1ccncc1.[O-]/C(=N\N=C\c1cccc(C(F)(F)F)c1)c1ccncc1	> 100	5.62	
CN(C)CCC(/C=C/c1ccccc1)=N\Nc1c(F)c(F)c(F)c(F)c1F			inactive
Clc1ccccc1C(=Nc1ccccc1)C(=Nc1ccccc1)c1ccccc1Cl	> 1.74	> 1.74	
CN(C)CCNC(=O)C(C)(C)Oc1ccc(C(=O)c2ccc(Cl)cc2)cc1Cl	> 200	9.55	
CCOC(=O)C(NC(=O)c1nc[nH]c1[N+](=O)[O-])C(C)C (configuration not stated)	> 91.2	63.1	
CCC12CCCN(Cc3ccccc3)C1c1c(n(C)c3ccccc13)C(C(=O)O)C2 (configuration not stated)	> 7.76	> 7.76	
C=CC(C)NC(=S)NNC(=S)NC (configuration not stated)	> 200	89.1	
CC(C)(CO)NCC(O)CS(=O)(=O)O (configuration not stated)	> 200	> 200	
SCc1ccc(-c2ccc(CS)cc2)cc1	> 4.27	> 4.27	
CCCC(=O)c1c(NOC2OCC(OC(C)=O)C(OC(C)=O)C2OC(C)=O)nc(OC)n(C)c1=O (configuration not stated)	> 14.5	> 14.5	
CC1=CC(=O)/C(=C/n2c(=S)[nH]c3ccc([N+](=O)[O-])cc32)C(=O)O1	> 1000	178	
CCOC(=O)c1ccc(N=C2SC(=S)N(c3ccc(F)cc3)C2=Nc2ccc(C(=O)OCC)cc2)cc1	> 20	6.76	
OCc1ccc2[n+](c1)CCC1c3ccccc3NC21 (configuration not stated)	> 77.6	> 77.6	
CC1=CP(=O)(c2ccccc2)CC1 (configuration not stated) (tested in a mixture with another compound)	> 646	> 646	
CC(=O)ON1C(=O)c2cccc3cccc(c23)C1=O	> 200	18.6	
